Measurements published in US8993606B2, “Oral formulations for treating metal overload” (FerroKin BioSciences, Inc., priority 2011, dated 2015).
Where two headings read alike, the source gives them in different places.

Tests used:
[1] = Relative humidity stress (deliquescence, hygroscopicity); type: physicochemical
[2] = Example 5: single-dose study in iron-overloaded human subjects (PK); type: in vivo; settings: for Tmax / AUC(0-inf) / AUC(0-t) / Cmax / half-life: human, plasma
Description: Example 5 was a single-dose, escalating study in iron-overloaded subjects. Men between the ages of 18-50 years qualified to participate if they were able to voluntarily give consent and had transfusional overload requiring treatment with an iron chelator and were willing to discontinue their chelation for a period of at least 7 days prior to screening and during the study. Eligible subjects had serum ferritin levels>300 ng/mL and ≦5000 ng/mL. Subjects had blood pressure in the normal range, ECG within normal limits and tested negative for drugs of abuse. Subjects were also HIV and Hepatitis B negative and agreed to use an approved method of contraception during the study.
The objectives of this study were to assess the safety, tolerability, and pharmacokinetics of ascending single doses of Compound 1. Additionally, dose proportionality and pharmacodynamics of Compound 1 were assessed. Four doses of Compound 1 (6, 10, 16, and 32 mg/kg), in capsule form, were evaluated in this study. Each dose level was tested in a single subject, with appropriate evaluation of safety done prior to escalating the dose. Following screening, the first subject was dosed and then confined to the clinical research unit for 24 hours to conduct safety and pharmacokinetic assessments. The subject was released from the clinic on Day 2 and returned daily for follow-up visits for 5 days post-dosing. This process was followed for each dose level.
All 4 subjects who received a dose of Compound 1 were included in the analysis of pharmacokinetic parameters.

[3] = test system: adults with transfusional iron overload; assay: Example 10: efficacy study, liver iron concentration (LIC); type: in vivo, human; settings: for % with net iron reduction / Mean net change in hepatic iron: first 24 weeks; for LIC, Week 12 / LIC, Week 24 / LIC, Week 48: patients entering extension study
Description: In this Example, the safety and efficacy of Compound 1 in adults with transfusional iron overload over 48 weeks of treatment was assessed. Diagnosis and transfusional iron burden of patients (including Asians, Blacks/African Americans, and Whites) at randomization are as follows: 38 patients diagnosed with β-thalassemia major, 2 patients diagnosed with α-thalassemia major, 2 diagnosed with β-thalassemia intermedia (transfusion>7/year), 6 diagnosed with HbE-β thalassemia, and 3 diagnosed with Sickle cell disease. The patients were divided into two dosing groups: 14.5 mg/kg/day and 29 mg/kg/day. Average liver iron content at baseline (mg/g dry weight) was 13.2 with SD 6.64 for the 14.5 mg/kg/day dosing group and 13.9 with SD 7.82 for the 29 mg/kg/day dosing group. Median serum ferritin (ng/ml) was 2564 for the 14.5 mg/kg/day dosing group and 2624 for the 29 mg/kg/day dosing group. Mean pre-transfusion average haemoglobin of previous 3 transfusions (g/dL) was 9.6 (with SD of 0.56) for the 14.5 mg/kg/day dosing group and 9.8 (with SD of 0.79) for the 29 mg/kg/day dosing group. Mean daily transfusion iron intake (mg/kg/d) was about 0.36 (ranging 0.22-0.84) for the 14.5 mg/kg/day dosing group and 0.38 (ranging 0.17-0.60) for the 29 mg/kg/day dosing group. See also FIGS. 7 and 8.

iron = assay: Pharmacodynamics: iron in 24-hour urine; type: in vivo, human
Description: Urine was collected for 24 hours following administration of Compound 1. […] In other studies, a more sensitive urinary iron assay was employed (LLOQ 10 μg/dL).

iron-overloaded subjects = assay: Safety: multiple-dose study in iron-overloaded subjects; type: in vivo, human
Description: Twenty iron-overloaded subjects were enrolled and completed the study. Four subjects in each cohort were orally administered 3, 8, 16, or 32 or 40 mg/kg/day of Compound 1 for 7 consecutive days.

[4] = test system: adult subjects with documented transfusional iron overload; assay: Safety: ongoing randomized open-label study, 16 or 32 mg/kg/day, transfusional iron overload; type: in vivo, human
Description: This study is an ongoing multicenter, randomized, open-label study of adult subjects with documented transfusional iron overload in need of chelation therapy. Subjects received investigational product for 24 weeks with an extension of 72 weeks for the evaluation of long-term safety and efficacy. Subjects were stratified according to transfusional iron intake (transfusion burden) then randomized to receive Compound 1 at 16 or 32 mg/kg/day. The investigational product was administered orally once daily for 24 weeks. At the conclusion of the 24-week dosing period, qualified subjects were allowed to continue receiving Compound 1 for an additional 72 weeks. Dose adjustments from 24 weeks onward are permitted if clinically indicated. Fifty-one subjects enrolled and completed the first 24 weeks of the study; 49 subjects entered the 72-week extension.

[5] = single oral dose 6 mg/kg, subject 1
[6] = single oral dose 10 mg/kg, subject 2
[7] = single oral dose 16 mg/kg, subject 3
[8] = single oral dose 32 mg/kg, subject 4

COCCOCCOCCOc1cccc(C2=N[C@@](C)(C(=O)O)CS2)c1O [Compound 1, (S)-4,5-Dihydro-2-[2-hydroxy-3-(3,6,9-trioxadecyloxy)phenyl]-4-methyl-4-thiazolecarboxylate magnesium hydroxide]
hygroscopicity [1]: non-hygroscopic | XRPD pattern after RH exposure ([1]; 75% RH for 8 days): remained unchanged | deliquescence ([1]; exposed to 75% RH for 8 days): did not deliquesce | total fraction of oral dose excreted in urine over 24 hour, average ([2]; 4 dose levels): 39% | dose proportionality of Cmax and AUC ([2]; 6-32 mg/kg dose range): dose-proportional | plasma concentrations at 24 hours post-dose ([2]; all subjects, 6, 10, 16 and 32 mg/kg): < 1 % of Cmax | Tmax ([2]; single oral dose 6 mg/kg (360 mg), subject 1, read-out: tmax): 1 h | AUC(0-inf) [2, 5]: 46300 ng·h/mL | AUC(0-t) [2, 5]: 45900 ng·h/mL | Cmax [2, 5]: 14900 ng/mL | Tmax ([2]; single oral dose 10 mg/kg (583 mg), subject 2, read-out: tmax): 0.77 h | AUC(0-inf) [2, 6]: 69700 ng·h/mL | AUC(0-t) [2, 6]: 69200 ng·h/mL | Cmax [2, 6]: 35400 ng/mL | Tmax ([2]; single oral dose 16 mg/kg (1288 mg), subject 3, read-out: tmax): 1 h | AUC(0-inf) [2, 7]: 122000 ng·h/mL | AUC(0-t) [2, 7]: 122000 ng·h/mL | Cmax [2, 7]: 38500 ng/mL | Tmax ([2]; single oral dose 32 mg/kg (2214.4 mg), subject 4, read-out: tmax): 1 h | AUC(0-inf) [2, 8]: 159000 ng·h/mL | AUC(0-t) [2, 8]: 157000 ng·h/mL | Cmax [2, 8]: 47600 ng/mL | half-life ([2]; male, oral, 6-32 mg/kg single dose, read-out: terminal half-life, range): 16 to 30 h | half-life ([2]; male, oral, averaged across all dose levels, read-out: mean t1/2 (converted)): 23.7 h | Tmax ([2]; male, oral, averaged across all dose levels, read-out: mean tmax): 0.925 h | total fraction of oral dose excreted in urine over 24 hour ([2]; range across the 4 dose levels): 28-51% | CL/F [2, 5]: 7.9 L/h | CL/F [2, 6]: 8.4 L/h | CL/F [2, 7]: 10.6 L/h | CL/F [2, 8]: 14.1 L/h | % with net iron reduction ([3]; 14.5 mg/kg): 29% | Mean net change in hepatic iron ([3]; 14.5 mg/kg): 3.1 mg/g-dw | % with net iron reduction ([3]; 29 mg/kg): 44% | Mean net change in hepatic iron ([3]; 29 mg/kg): −0.3 mg/g-dw | LIC, Week 12 ([3]; initial dose 14.5 mg/kg/day): 13.7 (1.74) | LIC, Week 24 ([3]; initial dose 14.5 mg/kg/day): 13.6 (1.94) | LIC, Week 48 ([3]; initial dose 14.5 mg/kg/day): 11.7 (1.46) | LIC, Week 12 ([3]; initial dose 29 mg/kg/day): 13.6 (2.04) | LIC, Week 24 ([3]; initial dose 29 mg/kg/day): 12.8 (1.79) | LIC, Week 48 ([3]; initial dose 29 mg/kg/day): 11.8 (2.04) | effect on liver iron concentration in iron overload patients ([3]; once daily oral, dose as low as 14.5 mg/kg of body weight): reduces liver iron concentration | iron in 24 hour urine (iron; all doses, LLOQ of iron approximately 195 μg/dL): no detectable iron | iron in urine, more sensitive assay (iron; other studies, LLOQ 10 μg/dL, no dose-dependent trends): Iron was detected in the urine of all subjects | TEAE QT prolonged (iron-overloaded subjects; 1 subject): 5% | TEAE abdominal pain upper (iron-overloaded subjects; 1 subject): 5% | TEAE blood urine present (iron-overloaded subjects; 1 subject): 5% | TEAE chromaturia (iron-overloaded subjects; 1 subject): 5% | TEAE dizziness (iron-overloaded subjects; 1 subject): 5% | TEAE feeling hot (iron-overloaded subjects; 1 subject): 5% | TEAE pruritus (iron-overloaded subjects; 1 subject): 5% | TEAE tachycardia (iron-overloaded subjects; 1 subject): 5% | TEAE flatulence (iron-overloaded subjects; 2 subjects): 10% | tolerability (iron-overloaded subjects; 3, 8, 16, 32 or 40 mg/kg/day for 7 consecutive days): generally well tolerated | TEAE headache (iron-overloaded subjects; 5 subjects): 25% | TEAE urine color abnormal (iron-overloaded subjects; 8 subjects, related to study drug): 40% | subjects with at least 1 TEAE (iron-overloaded subjects; 20 subjects, majority mild and unrelated to study drug): 90% | QTcB interval prolongation (iron-overloaded subjects; one subject, Day 7 of treatment, not observed with QTcF): 20 ms | SAE recorded (iron-overloaded subjects; subject at 3 mg/kg/day, sickle cell crisis, not related to treatment): 1 SAE | TEAE headache ([4]; 5 subjects): 9.8% | TEAE increased transaminases ([4]; 8 subjects): 15.7% | Treatment-related gastrointestinal TEAEs ([4]; 17 subjects): 33.3% | subjects with at least 1 related TEAE ([4]; 31/51 subjects): 61% | Elevations in transaminases ([4]; 72 week treatment period): not significant | Mean serum creatinine ([4]; 72 week treatment period, remained in the normal range): did not change from baseline | TEAE diarrhea ([4]; N=3): 5.9% | TEAE flatulence ([4]; N=6): 11.8% | Any TEAE ([4]; Total (N = 51)): 49 (96.1%) N (%) | Creatinine increase >33% and creatinine <=ULN at 2 consecutive post-baseline visits ([4]; Total (N = 51)): 2 (3.9) N (%) | Creatinine increase >33% and creatinine >ULN at 2 consecutive post-baseline visits ([4]; Total (N = 51)): 0 N (%) | Creatinine increase and creatinine >ULN at 2 consecutive post-baseline visits ([4]; Total (N = 51)): 1 (2.0) N (%) | Serious TEAE ([4]; Total (N = 51)): 5 (9.8%) N (%) | TEAE Related to Investigational Product ([4]; Total (N = 51)): 31 (60.8%) N (%) | TEAE Requiring Discontinuation of Study Drug ([4]; Total (N = 51)): 14 (27.5%) N (%) | serum creatinine levels ([4]; as of Week 48): no trends | tolerability ([4]; doses tested (8-50 mg/kg/day)): generally well tolerated | SAEs ([4]; in four subjects, none judged related to treatment): 10 SAEs | severity of all related TEAEs ([4]; in vivo): mild to moderate
